Experimental data: patent publication US20250002785A1, “MULTIPURPOSE IMIDAZOLINE-BASED PROCESS CHEMICALS” (Baker Hughes Oilfield Operations LLC, priority 2023, published 2025)

Test: hydrogen sulfide scavenging in sour Isopar M solvent
Details: sour Isopar M solvent with 4000 ppm H2S, scavenger dose per sample in the 5th table
Method: Further testing was performed to compare the hydrogen sulfide scavenging properties of an exemplary embodiment of the multipurpose process chemical compared to conventional scavengers.
A sour Isopar™ M solvent was obtained with 4000 ppm hydrogen sulfide (H2S). Samples were obtained by mixing the following with the sour Isopar™ M solvent:
The control and Samples V-A through V-F were stirred for twenty-four (24) hours at ambient temperature (˜71° F.). […] The table below summarizes the hydrogen sulfide scavenging observed for each sample: […]

Compound: CC1COC(=O)O1 (centres unmarked) [Sample V-C, propylene carbonate]
- % H2S reduction (24 hours, ambient temperature): 0%
- H2S at 24 hours (ppm) (stirred 24 hours at ambient temperature (~71 F), control 3,500 ppm): 3,500 ppm
